# According to article PMC11677424, “Early-Stage IM Treatment with the Host-Derived Immunostimulant CPDI-02 Increases Curative Protection of Healthy Outbred Mice Against Subcutaneous Infection with Community-Acquired Methicillin-Resistant Staphylococcus aureus USA300” (Pharmaceutics, 2024):
# Columns and labels:
# CA-MRSA USA300 LAC = test: CA-MRSA burden of subcutaneous abscesses after single IM treatment; assay type: in vivo, Staphylococcus aureus; conditions: female CD-1 mice, single IM 50 mg/kg at 6 h post-challenge, Day 1 post-challenge
# Method: At 24 h post-challenge (Section 2.4: single IM treatment), mice were euthanized (n = 5 per cohort) and rear flanks were disinfected with 70% EtOH. Abscess and skin biopsies (Tru-Punch Sterile Disposable Biopsy Punch Razors, 8 mm^2, Sklar instruments 961130) were suspended in TSB [2 mL] and homogenized in C tubes (Miltenyi Biotec 130-093-237, Bergisch Gladbach, DE) using a gentleMACS Dissociator (Miltenyi Biotec 130-093-235, program B). Homogenized abscess tissues were serially diluted in PBS and plated on TSA plates and incubated at 37 °C for 24 h, and bacterial colonies were counted. Bacterial colony counts per abscess were normalized to starting tissue weights and compared using a Mann–Whitney test (nonparametric t-test). Sections of paraffin-embedded tissues collected above were also Gram-stained and analyzed on a Nikon Eclipse E600 (Minato City, Japan) at 200× magnification and imaged using a Lumenera Infinity 2 Microscope Camera (Ottawa, ON, Canada).
# CA-MRSA USA300 = conditions: cited from earlier work
# Source text: Consistent with protection, SQ treatment with CPDI-02 increased local levels of IL-1β, IL-6, and CXCL1 and NP recruitment to the abscess. In contrast, SQ treatment of C5aR1 knockout mice with CDPI-02 had no effect against SQ infection with CA-MRSA up to ...
# [1] = test system: neutrophils (Ly6G/Ly6C+) and mononuclear phagocytes (F4/80+) in subcutaneous abscesses; test: Proportions of neutrophils and mononuclear phagocytes in subcutaneous abscesses (quantitative IHC); assay type: in vivo, female outbred CD-1 mice; conditions: single IM 50 mg/kg at 6 h post-challenge; 18 h post-treatment; n = 3 mice
# [2] = test system: primary human neutrophils (NPs); conditions: cited from earlier work
# Source text: (§1) Complement Peptide-Derived Immunostimulant-02 (CPDI-02) (formerly EP67) is a novel, second-generation host-derived decapeptide agonist of […] (C5) Receptor 1 (C5aR1/C5a1R/CD88), which is based on the C-terminal pharmacophore of human Complement Peptide C5a (hC5a).
# [3] = test system: primary human mononuclear phagocytes (MPs); conditions: cited from earlier work
# Source text: as §1
# [4] = test system: pro-inflammatory cytokines/chemokines in subcutaneous abscesses; test: Pro-inflammatory cytokines and chemokines in subcutaneous abscesses (multiplex ELISA); assay type: in vivo, female outbred CD-1 mice; conditions: single IM 50 mg/kg at 6 h post-challenge, n = 5
# Method: At 3 h and 18 h post-treatment (Section 2.4: single IM treatment), mice were euthanized (n = 5 per cohort per time point), then abscess and skin biopsies were collected (Section 2.5), suspended in PBS [2 mL], and homogenized in C tubes (Miltenyi Biotec 130-093-237) using a gentleMACS Dissociator (Miltenyi Biotec 130-093-235, program B). Tissue homogenates were stored at −20 °C until analysis. Homogenized abscess tissues were then analyzed using a V-PLEX Pro-inflammatory Panel 1 Mouse Kit (Meso Scale Diagnostics K15048D-1) on a MESO QuickPlex SQ 120MM (MESO, Rockville, MD, USA) to measure the inflammatory markers of the abscesses.
# [5] = Preliminary PK and distribution after IM or IV administration (LC-MS/MS); assay type: in vivo, female outbred CD-1 mice
# Method: Female outbred CD-1 mice (4-6 weeks old) were infected SQ with CA-MRSA, as described (Section 2.4). At 6 h post-infection, vehicle alone (PBS) or vehicle containing 12.5 mg CPDI-02/kg (IV) or 50 mg/kg (IM) and blood samples (50 µL) were collected from the submandibular vein (Medipoint Goldenrod Lancet, 5 mm) at 2, 4, 8, and 24 h post-treatment into EDTA-coated tubes containing 200 µL of acidified methanol (0.1% formic acid v/v), and immediately mixed by repeated inversion. Samples were pelleted (16,000 RCF) for 10 min, and supernatants were stored at −80 °C until analysis. At 24 h post-challenge, mice were euthanized, and rear flanks were disinfected with 70% ethanol. Abscesses (Section 2.5) and organs were excised, rinsed with deionized H2O, dried, and 50 mg sections were collected in 200 µL of acidified methanol, homogenized using a gentleMACS Dissociator (Miltenyi Biotec 130-093-235, Tokyo, Japan), and stored at −80 °C until analysis.
# Peptide quantitation was performed using a Waters ACQUITY UPLC system coupled to a Xevo TQ-XS Tandem Quadrupole Mass Spectrometer with electrospray ionization. […] The following MRM m/z values were monitored: 621.4 > 84 and 621.4 > 100 for the analyte and IS, respectively. Peptide concentrations were determined using analyte-to-IS peak area ratios. […]
smiles,measurement,setting,value
CSCC[C@H](NC(=O)[C@H](CC(=O)O)NC(=O)[C@H](CCCCN)NC(=O)[C@H](Cc1ccccc1)NC(=O)[C@H](CO)NC(=O)[C@@H](N)Cc1ccc(O)cc1)C(=O)N1CCC[C@H]1C(=O)N(C)[C@@H](CC(C)C)C(=O)N[C@H](C)C(=O)N[C@@H](CCCNC(=N)N)C(=O)O [CPDI-02],detectable CA-MRSA in subcutaneous abscesses (Gram staining) vs vehicle,CA-MRSA USA300 LAC; histochemistry,qualitatively decreased
same,CA-MRSA CFU/g of abscess tissue,"CA-MRSA USA300 LAC; mean ± SD, vehicle 3 × 10^6 ± 2 × 10^6, SD",1.8 × 10^6 ± 0.8 × 10^6 CFU/g of abscess tissue
same,effect against SQ infection with CA-MRSA vs inactive scCPDI-02,"CA-MRSA USA300; C5aR1 knockout mice, SQ treatment, up to 48 h post-challenge",no effect
same,"local levels of IL-1β, IL-6 and CXCL1 and NP recruitment to the abscess","CA-MRSA USA300; outbred mice, prophylactic SQ treatment",increased
same,"maximum abscess surface area, CA-MRSA load per gram of tissue and time to abscess resolution vs inactive scCPDI-02","CA-MRSA USA300; outbred mice, repeat SQ treatment before and after SQ challenge, three injections total, 12.5 mg/kg",significantly decreased
same,increase of ratio of MPs (F4/80+) to total cells (DAPI+) vs vehicle alone,[1],4 fold
same,increase of ratio of mononuclear phagocytes to neutrophils (Ly6G/Ly6C+) vs vehicle alone,[1],7 fold
same,ratio of NPs (Ly6G/Ly6C+) to total cells (DAPI+) in subcutaneous abscesses vs vehicle alone,[1],similar
same,EC50,[2],160 µM
same,potency for activating MPs over NPs,[3]; primary human MPs vs primary human NPs,10^3 fold
same,EC50,[3]; primary human MPs,0.167 µM
same,"levels of IFN-γ, IL-2, IL-4, IL-5, IL-6, IL-10, IL-12p70, CXCL-1 [KC/GRO], TNF-α in subcutaneous abscesses",[4]; 3 h and 18 h post-treatment,no effect
same,levels of IL-1β in subcutaneous abscesses vs vehicle alone,[4]; 3 h post-treatment,decreased
same,"relative distribution to heart, lungs, liver, kidneys, spleen or brain, IM vs IV","[5]; IM 50 mg/kg vs IV 12.5 mg/kg, 18 h post-treatment, n = 3 to 5",no effect
same,plasma concentrations after IM vs IV administration,"[5]; abscess-bearing female CD-1 mice, IM 50 mg/kg vs IV 12.5 mg/kg at 6 h post-challenge, 2, 4, 8, 24 h post-treatment, n = 5",increased
